Data as given in patent US20260285863A1, “COMPOUNDS CAPABLE OF MODULATING GPR65” (Pathios Therapeutics Limited, priority 2023, published 2026).

Target: T1, human recombinant GPR65 (Homo sapiens, UniProt Q8IYL9)
T1 construct: host or cells: 1321N1 human astrocytoma cells (1321N1-hrGPR65)
Experiment: Human GPR65 cAMP HTRF antagonist assay
Type: cell-based
Conditions: 1321N1-hrGPR65 cells, assay pH 7.2, cAMP HTRF; read-out: hGPR65 IC50
Description: The “Human GPR65 cyclic adenosine monophosphate (cAMP) Homogeneous Time Resolved Fluorescence (HTRF) antagonist assay”, or simply “cAMP assay”, as described in the accompanying examples, can be used to measure the potency of GPR65 modulators, which is expressed as the concentration of compound required to reduce the increase in cAMP concentration upon GPR65 activation by 50% (i.e. an IC50).
Human GPR65 Cyclic Adenosine Monophosphate (cAMP) Homogeneous Time Resolved Fluorescence (HTRF) Antagonist Assay Procedure
IC50data was obtained by the following procedure:
1321N1 human astrocytoma cells stably expressing human recombinant GPR65 (1321N1-hrGPR65 cells, EuroscreenFast) were cultured according to the vendor's instructions.
Compounds were tested for their ability to antagonise GPR65, through measuring the concentration of cytoplasmic cAMP following treatment of the cells at a pH of 7.2 to activate GPR65 signalling and addition of the compound to be tested. The extent to which the expected rise in cAMP concentration upon GPR65 activation was suppressed by the added compound is indicative of its potency. The assay was carried out according to EuroscreenFast assay Methodology as follows.
On the day of the assay, test compounds were added to 384-well, low volume, white microtiter plates by acoustic dispensing. KRH buffer (5 mM KCl, 1.25 mM MgSO4, 124 mM NaCl, 25 mM HEPES, 13.3 mM Glucose, 1.25 mM KH2PO4 and 1.45 mM CaCl2) was adjusted to pH 6.5, pH 7.6 and pH 8.4 by adding NaOH. 1321N1-hGPR65 cells were rapidly thawed and diluted in KRH, pH 7.6 prior to centrifugation at 300×g for 5 min and resuspension in assay buffer (KRH, pH 7.6, supplemented with 1 mM 3-isobutyl-1-methylxanthine (IBMX) and 200 μM ethylenediaminetetraacetic acid (EDTA)). Cells were added to assay plates at a density of 2,000 cells per well in a volume of […]. Assay plates were briefly centrifuged at 100×g and then incubated at room temperature for 30 min. Cells were stimulated by the addition of 5 μL KRH, pH 6.5, to achieve an assay pH of 7.2, while control wells received […] KRH, pH 8.4 to achieve an assay pH of 7.9. Assay plates were briefly centrifuged at 100×g and then incubated at room temperature for 30 min.
Accumulation of cAMP was detected by cAMP HTRF kit (Cisbio). d2-labeled cAMP and cryptate-labeled anti-cAMP antibody in Lysis and Detection Buffer (Cisbio) were added to assay plates, and the plates were incubated at room temperature for 1 h. HTRF measurements were performed using a Pherastar FSX instrument. Acceptor and donor emission signals were measured at 665 nm and 620 nm, respectively, and HTRF ratios were calculated as signal665 nm/signal620 nm×104. Data were normalised to high and low control values and fitted with 4-parameter logistic regression to determine hGPR65 IC50 values for the test compounds, which are shown in Table 1.

T1 sequence (Q8IYL9 whole entry): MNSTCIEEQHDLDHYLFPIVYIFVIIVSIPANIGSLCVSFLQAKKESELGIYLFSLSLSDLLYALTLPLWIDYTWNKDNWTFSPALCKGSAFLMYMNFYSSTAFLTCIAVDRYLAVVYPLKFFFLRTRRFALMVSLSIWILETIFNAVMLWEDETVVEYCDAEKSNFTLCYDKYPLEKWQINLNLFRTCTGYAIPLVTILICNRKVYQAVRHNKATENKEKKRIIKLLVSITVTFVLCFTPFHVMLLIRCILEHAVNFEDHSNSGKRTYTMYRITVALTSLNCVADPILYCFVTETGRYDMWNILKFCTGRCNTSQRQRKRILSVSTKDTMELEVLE

| Structure (SMILES) | IC50 [nM] |
| --- | --- |
| COCCO[C@H]1C[C@@H](Oc2ccc(-c3cc(F)c(NC(=O)N4[C@H]5CC[C@@H]4c4c[nH]c(=O)cc4C5)cc3Cl)cn2)C1 [Compound 23, (6S,9R)-N-(5-chloro-2-fluoro-4-(6-((1s,3S)-3-(2-methoxyethoxy)cyclobutoxy)pyridin-3-yl)phenyl)-3-oxo-3,5,6,7,8,9-hexahydro-2H-6,9-epiminocyclohepta[c]pyridine-10-carboxamide] | < 500 |
| Cc1cc(-c2cc(F)c(NC(=O)N3[C@H]4CC[C@@H]3c3c[nH]c(=O)cc3C4)cc2Cl)cc2nsnc12 [Compound 24, (6S,9R)-N-(5-chloro-2-fluoro-4-(7-methylbenzo[c][1,2,5]thiadiazol-5-yl)phenyl)-3-oxo-3,5,6,7,8,9-hexahydro-2H-6,9-epiminocyclohepta[c]pyridine-10-carboxamide] | < 500 |
| CC(C)(C)OC(=O)N1CCC(Oc2ccc(-c3cc(F)c(NC(=O)N4[C@H]5CC[C@@H]4c4c[nH]c(=O)cc4C5)cc3Cl)cn2)C1 (stereo partly drawn) [Compound 25, tert-Butyl 3-((5-(2-chloro-5-fluoro-4-((6S,9R)-3-oxo-3,5,6,7,8,9-hexahydro-2H-6,9-epiminocyclohepta[c]pyridine-10-carboxamido)phenyl)pyridin-2-yl)oxy)pyrrolidine-1-carboxylate] | < 500 |
| Cn1ccc2cc(-c3cc(F)c(NC(=O)N4[C@H]5CC[C@@H]4c4c[nH]c(=O)cc4C5)cc3Cl)ccc21 [Compound 26, (6S,9R)-N-(5-chloro-2-fluoro-4-(1-methyl-1H-indol-5-yl)phenyl)-3-oxo-3,5,6,7,8,9-hexahydro-2H-6,9-epiminocyclohepta[c]pyridine-10-carboxamide] | < 500 |
| O=C(Nc1cc(Cl)c(-c2ccc(OC3CCN(CC(F)(F)F)C3)nc2)cc1F)N1[C@H]2CC[C@@H]1c1c[nH]c(=O)cc1C2 (stereo partly drawn) [Compound 27, (6S,9R)-N-(5-chloro-2-fluoro-4-(6-((1-(2,2,2-trifluoroethyl)pyrrolidin-3-yl)oxy)pyridin-3-yl)phenyl)-3-oxo-3,5,6,7,8,9-hexahydro-2H-6,9-epiminocyclohepta[c]pyridine-10-carboxamide] | < 500 |
| O=C(Nc1cc(Cl)c(-c2ccc(OCC3CCC3)nc2)cc1F)N1[C@H]2CC[C@@H]1c1c[nH]c(=O)cc1C2 [Compound 28, (6S,9R)-N-(5-chloro-4-(6-(cyclobutylmethoxy)pyridin-3-yl)-2-fluorophenyl)-3-oxo-3,5,6,7,8,9-hexahydro-2H-6,9-epiminocyclohepta[c]pyridine-10-carboxamide] | < 500 |
| CC(C)(C)OC(=O)N1CC(COc2ccc(-c3cc(F)c(NC(=O)N4[C@H]5CC[C@@H]4c4c[nH]c(=O)cc4C5)cc3Cl)cn2)C1 [Compound 29, tert-Butyl 3-(((5-(2-chloro-5-fluoro-4-((6S,9R)-3-oxo-3,5,6,7,8,9-hexahydro-2H-6,9-epiminocyclohepta[c]pyridine-10-carboxamido)phenyl)pyridin-2-yl)oxy)methyl)azetidine-1-carboxylate] | < 500 |
| Cn1cc(-c2cc(F)c(NC(=O)N3[C@H]4CC[C@@H]3c3c[nH]c(=O)cc3C4)cc2Cl)ccc1=O [Compound 30, (6S,9R)-N-(5-chloro-2-fluoro-4-(1-methyl-6-oxo-1,6-dihydropyridin-3-yl)phenyl)-3-oxo-3,5,6,7,8,9-hexahydro-2H-6,9-epiminocyclohepta[c]pyridine-10-carboxamide] | 500 to 5000 |
| CN(C(=O)C(F)(F)F)c1ccc(-c2cc(F)c(NC(=O)N3[C@H]4CC[C@@H]3c3c[nH]c(=O)cc3C4)cc2Cl)cn1 [Compound 31, (6S,9R)-N-(5-chloro-2-fluoro-4-(6-(2,2,2-trifluoro-N-methylacetamido)pyridin-3-yl)phenyl)-3-oxo-3,5,6,7,8,9-hexahydro-2H-6,9-epiminocyclohepta[c]pyridine-10-carboxamide] | 500 to 5000 |
| O=C(Nc1cc(Cl)c(-c2ccc(OCC3CN(CC(F)(F)F)C3)nc2)cc1F)N1[C@H]2CC[C@@H]1c1c[nH]c(=O)cc1C2 [Compound 32, (6S,9R)-N-(5-chloro-2-fluoro-4-(6-((1-(2,2,2-trifluoroethyl)azetidin-3-yl)methoxy)pyridin-3-yl)phenyl)-3-oxo-3,5,6,7,8,9-hexahydro-2H-6,9-epiminocyclohepta[c]pyridine-10-carboxamide] | < 500 |
| Cn1ncc2cc(-c3cc(F)c(NC(=O)N4[C@H]5CC[C@@H]4c4c[nH]c(=O)cc4C5)cc3Cl)ccc21 [Compound 37, (6S,9R)-N-(5-chloro-2-fluoro-4-(1-methyl-1H-indazol-5-yl)phenyl)-3-oxo-3,5,6,7,8,9-hexahydro-2H-6,9-epiminocyclohepta[c]pyridine-10-carboxamide] | < 500 |
| O=C(Nc1cc(Cl)c(-c2ccc(OCC3CC3(F)F)nc2)cc1F)N1[C@H]2CC[C@@H]1c1c[nH]c(=O)cc1C2 (stereo partly drawn) [Compound 38, (6S,9R)-N-(5-chloro-4-(6-((2,2-difluorocyclopropyl)methoxy)pyridin-3-yl)-2-fluorophenyl)-3-oxo-3,5,6,7,8,9-hexahydro-2H-6,9-epiminocyclohepta[c]pyridine-10-carboxamide] | < 500 |
| CN(CC(F)(F)F)c1ccnc(-c2cc(F)c(NC(=O)N3[C@H]4CC[C@@H]3c3c[nH]c(=O)cc3C4)cc2Cl)c1 [Compound 39, (6S,9R)-N-(5-chloro-2-fluoro-4-(4-(methyl(2,2,2-trifluoroethyl)amino)pyridin-2-yl)phenyl)-3-oxo-3,5,6,7,8,9-hexahydro-2H-6,9-epiminocyclohepta[c]pyridine-10-carboxamide] | < 500 |
| O=C(Nc1cc(Cl)c(-c2ccc(CC(F)(F)F)nc2)cc1F)N1[C@H]2CC[C@@H]1c1c[nH]c(=O)cc1C2 [Compound 40, (6S,9R)-N-(5-chloro-2-fluoro-4-(6-(2,2,2-trifluoroethyl)pyridin-3-yl)phenyl)-3-oxo-3,5,6,7,8,9-hexahydro-2H-6,9-epiminocyclohepta[c]pyridine-10-carboxamide] | < 500 |
| O=C(Nc1cc(Cl)c(-c2ccc(OCC3CCOC3)nc2)cc1F)N1[C@H]2CC[C@@H]1c1n[nH]c(=O)cc1C2 (stereo partly drawn) [Compound 41, (6S,9R)-N-(5-chloro-2-fluoro-4-(6-((tetrahydrofuran-3-yl)methoxy)pyridin-3-yl)phenyl)-3-oxo-3,5,6,7,8,9-hexahydro-2H-6,9-epiminocyclohepta[c]pyridazine-10-carboxamide] | < 500 |
| O=C(Nc1cc(Cl)c(Cl)cn1)N1[C@@H]2CC[C@H]1[C@@H](F)c1c2ccnc1F [Compound 42, (5R,8S,9S)-N-(4,5-dichloropyridin-2-yl)-1,9-difluoro-6,7,8,9-tetrahydro-5H-5,8-epiminocyclohepta[c]pyridine-10-carboxamide] | < 500 |
| CN(CC(F)(F)F)c1cc(-c2cc(F)c(NC(=O)N3[C@H]4CC[C@@H]3c3c[nH]c(=O)cc3C4)cc2Cl)ccn1 [Compound 43, (6S,9R)-N-(5-chloro-2-fluoro-4-(2-(methyl(2,2,2-trifluoroethyl)amino)pyridin-4-yl)phenyl)-3-oxo-3,5,6,7,8,9-hexahydro-2H-6,9-epiminocyclohepta[c]pyridine-10-carboxamide] | < 500 |
| O=C(Nc1cc(Cl)c(Cl)cn1)N1[C@H]2CC[C@@H]1c1ccncc1C2 [Compound 44, (5R,8S)-N-(4,5-dichloropyridin-2-yl)-6,7,8,9-tetrahydro-5H-5,8-epiminocyclohepta[c]pyridine-10-carboxamide] | < 500 |
| N#Cc1cc(NC(=O)N2[C@H]3CC[C@@H]2c2ccnc(F)c2C3)c(F)cc1Cl [Compound 45, (5R,8S)-N-(4-chloro-5-cyano-2-fluorophenyl)-1-fluoro-6,7,8,9-tetrahydro-5H-5,8-epiminocyclohepta[c]pyridine-10-carboxamide] | < 500 |
| O=C(Nc1ccc(Cl)cc1F)N1[C@H]2CC[C@@H]1c1ccnc(F)c1C2 [Compound 46, (5R,8S)-N-(4-chloro-2-fluorophenyl)-1-fluoro-6,7,8,9-tetrahydro-5H-5,8-epiminocyclohepta[c]pyridine-10-carboxamide] | < 500 |
| O=C(Nc1cc(Cl)c(Cl)cc1F)N1[C@H]2CC[C@@H]1c1ccncc1C2 [Compound 49, (5R,8S)-N-(4,5-dichloro-2-fluorophenyl)-6,7,8,9-tetrahydro-5H-5,8-epiminocyclohepta[c]pyridine-10-carboxamide] | < 500 |
